Legend:
[1] = system: RSRD cells (MCF-10A cyclin E); test: Senescence assay (senescence-associated β galactosidase staining); type: cell-based, human; details: 0.5 μM AZD6244 (MEKi) or 0.1 μM ERKi (SCH772984) for 48 hours
Protocol: Senescence assay. shCTRL, shCTRL_cycE, and RSRD cells (5×10^4) were seeded in 6 wells for 48 h prior to treatment with MEK or ERK inhibitors in presence or absence of 2 μg/mL doxycycline to induce cyclin E expression. After the addition of these inhibitors, cells were cultured for another 48 h. Next, a senescence assay was performed using the senescence β-galactosidase staining kit according to the manufacturer's protocol. The percentage of senescent cells was calculated using the ratio of SA-βgal-positive cells to total cells. Mammosphere Formation Assay RSR defect model cells (5000) were seeded in an ultra-low-attachment surface 6-well plate (Corning) in mammosphere medium (50% DMEM, 50% DMEM/F12, […] hydrocortisone, 10 μg/mL insulin, 20 ng/mL recombinant EGF, 100 ng/mL cholera toxin) for 7 days in presence or absence of 2 μg/mL doxycycline to induce cyclin E expression. Spheres with diameters larger than 50 μm were scored as mammospheres.

MCF10A shATR cells = test: Stem cell score from gene expression; type: cell-based, human; details: 48 hours, 0.5 μM AZD6244, MCF10A shATR cells
Protocol: Microarrays. Microarray analysis was conducted as described previously (Peng et al., 2014). Specifically, total RNA was extracted from the cells 48 hours after plating in presence or absence of doxycycline using a QIAGEN RNeasy RNA isolation kit. Complementary RNA was generated using a TotalPrep RNA amplification kit and loaded onto a HumanHT-12 v4 Expression BeadChip for analysis using the manufacturer's procedure.
Expression signature score. Expression signature scores were computed based on correlation coefficient between the coefficients in the gene signature and corresponding expression level in a given sample (McGrail et al., 2017; van de Vijver et al., 2002), with higher values representing a stronger correlation.

[2] = system: breast cancer cell lines / MCF10A shATR over-expressing cyclin E; test: Aldehyde dehydrogenase assay (Aldefluor, flow cytometry), CSC depletion; type: cell-based, human; details: 48 hours, AZD6244 0.5 or 1.0 μM, SCH772984 0.1 or 1.0 μM, MDA-MB-231, MDA-MB-436, MCF7-stem, M158, 4T1
Protocol: Aldehyde dehydrogenase assay. Aldehyde dehydrogenase was detected using the Aldefluor kit ([…] Technologies) per the manufacturer's instructions. In brief, 1×10^6 cells/mL were incubated with Aldefluor reagent in presence or absence of ALDH inhibitor DEAB for 45 minutes at 37° C. Cells were washed, re-suspended in ALDH buffer, and analyzed by flow cytometry. Positive cells were gated relative to the DEAB-treated negative control. In some instances, cells were treated with AZD6244, SCH772984, or 2 μg/mL doxycycline 48 hours prior to analysis.

p21 = test: Western blot of p21 protein; type: cell-based, human; details: 0.5 μM AZD6244 or 0.1 μM SCH772984 for 48 hours, doxycycline 2 μg/mL
[3] = system: 4T1 murine mammary carcinoma; test: 4T1 murine mammary carcinoma in syngeneic mice, combination with anti-PD1; type: in vivo; details: 25 mg/kg AZD7762 plus 10 mg/kg anti-PD1 (clone RMP1-14), Balb\C mice
Source text: FIG. 18. […] The 4T1 murine mammary carcinoma was implanted into syngeneic (Balb\C) mice and allowed to grow to ˜[…] before randomization.

MDM2 phosphorylation = test: Western blot of MDM2 phosphorylation; type: cell-based, human; details: 0.1 μM SCH772984 for 48 hours vs DMSO
p53 = test: Western blot of p53 levels; type: cell-based, human; details: 0.1 μM SCH772984 for 48 hours vs DMSO
ATR = ATR (Homo sapiens, UniProt Q13535); details: read-out: kinase inhibition IC50; cited from earlier work
Chain of ATR (Q13535 whole entry): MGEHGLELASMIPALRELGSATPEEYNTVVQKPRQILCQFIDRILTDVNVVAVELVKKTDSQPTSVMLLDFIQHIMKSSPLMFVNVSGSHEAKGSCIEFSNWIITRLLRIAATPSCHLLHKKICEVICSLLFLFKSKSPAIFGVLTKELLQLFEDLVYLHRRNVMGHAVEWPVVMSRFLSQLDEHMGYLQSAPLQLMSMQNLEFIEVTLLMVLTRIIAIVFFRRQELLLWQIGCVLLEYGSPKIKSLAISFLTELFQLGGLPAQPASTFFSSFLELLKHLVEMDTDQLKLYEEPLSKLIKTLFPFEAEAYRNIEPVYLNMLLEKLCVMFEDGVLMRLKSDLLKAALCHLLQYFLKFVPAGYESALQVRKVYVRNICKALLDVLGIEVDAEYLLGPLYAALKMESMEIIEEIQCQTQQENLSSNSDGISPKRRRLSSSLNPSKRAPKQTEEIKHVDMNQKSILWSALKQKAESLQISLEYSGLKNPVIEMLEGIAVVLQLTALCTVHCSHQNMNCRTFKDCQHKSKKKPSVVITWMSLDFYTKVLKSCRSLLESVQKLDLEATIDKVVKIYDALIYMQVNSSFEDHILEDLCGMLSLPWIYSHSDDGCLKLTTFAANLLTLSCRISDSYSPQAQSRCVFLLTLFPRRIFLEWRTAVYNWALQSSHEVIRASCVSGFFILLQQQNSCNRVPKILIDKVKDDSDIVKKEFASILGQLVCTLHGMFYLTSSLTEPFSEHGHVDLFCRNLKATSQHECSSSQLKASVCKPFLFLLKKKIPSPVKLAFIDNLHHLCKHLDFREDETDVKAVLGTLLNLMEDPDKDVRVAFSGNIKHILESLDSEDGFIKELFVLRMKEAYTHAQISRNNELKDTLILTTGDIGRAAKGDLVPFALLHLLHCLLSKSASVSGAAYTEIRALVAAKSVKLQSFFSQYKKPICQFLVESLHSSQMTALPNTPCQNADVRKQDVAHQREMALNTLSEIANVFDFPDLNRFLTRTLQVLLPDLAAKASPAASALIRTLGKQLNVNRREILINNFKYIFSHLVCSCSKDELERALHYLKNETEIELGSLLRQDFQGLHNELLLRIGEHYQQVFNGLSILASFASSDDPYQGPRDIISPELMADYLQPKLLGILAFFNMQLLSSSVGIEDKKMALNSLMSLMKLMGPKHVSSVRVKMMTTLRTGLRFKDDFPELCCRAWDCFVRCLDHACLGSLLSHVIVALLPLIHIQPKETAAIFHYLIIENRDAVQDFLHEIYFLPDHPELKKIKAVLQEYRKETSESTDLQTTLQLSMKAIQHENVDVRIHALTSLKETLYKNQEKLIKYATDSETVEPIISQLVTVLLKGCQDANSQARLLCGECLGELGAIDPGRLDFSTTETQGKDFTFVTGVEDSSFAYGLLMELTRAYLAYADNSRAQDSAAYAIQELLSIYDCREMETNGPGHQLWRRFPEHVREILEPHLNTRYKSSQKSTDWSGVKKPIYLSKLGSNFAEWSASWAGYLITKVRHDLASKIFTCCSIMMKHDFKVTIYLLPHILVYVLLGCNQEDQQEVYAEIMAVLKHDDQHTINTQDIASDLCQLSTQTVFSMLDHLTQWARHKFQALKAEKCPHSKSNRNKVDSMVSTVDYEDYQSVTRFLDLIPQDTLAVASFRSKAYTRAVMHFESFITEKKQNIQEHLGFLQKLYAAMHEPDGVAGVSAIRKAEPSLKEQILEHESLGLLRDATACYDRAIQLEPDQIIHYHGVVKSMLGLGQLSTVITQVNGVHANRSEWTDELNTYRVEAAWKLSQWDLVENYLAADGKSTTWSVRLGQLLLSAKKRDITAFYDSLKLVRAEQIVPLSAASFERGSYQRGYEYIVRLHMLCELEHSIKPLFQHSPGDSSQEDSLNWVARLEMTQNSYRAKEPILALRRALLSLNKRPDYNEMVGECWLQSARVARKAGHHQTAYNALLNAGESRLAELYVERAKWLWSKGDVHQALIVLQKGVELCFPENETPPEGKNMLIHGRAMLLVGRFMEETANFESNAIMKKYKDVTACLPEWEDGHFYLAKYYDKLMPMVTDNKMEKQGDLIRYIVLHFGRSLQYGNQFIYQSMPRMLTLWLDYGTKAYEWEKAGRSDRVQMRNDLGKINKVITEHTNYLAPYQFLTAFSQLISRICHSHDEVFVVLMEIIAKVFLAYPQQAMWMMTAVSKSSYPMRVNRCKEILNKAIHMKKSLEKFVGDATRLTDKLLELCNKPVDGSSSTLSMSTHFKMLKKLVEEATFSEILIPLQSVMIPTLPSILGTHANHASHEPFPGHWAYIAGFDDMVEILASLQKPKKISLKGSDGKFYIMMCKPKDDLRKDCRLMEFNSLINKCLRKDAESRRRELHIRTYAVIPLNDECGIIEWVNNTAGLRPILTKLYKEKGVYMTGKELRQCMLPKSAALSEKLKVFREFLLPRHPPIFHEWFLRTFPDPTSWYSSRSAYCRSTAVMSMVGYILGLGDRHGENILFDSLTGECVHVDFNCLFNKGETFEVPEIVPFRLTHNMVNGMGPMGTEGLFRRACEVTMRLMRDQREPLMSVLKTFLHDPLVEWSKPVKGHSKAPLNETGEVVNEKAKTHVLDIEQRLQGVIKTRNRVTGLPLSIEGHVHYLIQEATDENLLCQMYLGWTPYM
Chain of ATR (Q8WXE1 whole entry partner): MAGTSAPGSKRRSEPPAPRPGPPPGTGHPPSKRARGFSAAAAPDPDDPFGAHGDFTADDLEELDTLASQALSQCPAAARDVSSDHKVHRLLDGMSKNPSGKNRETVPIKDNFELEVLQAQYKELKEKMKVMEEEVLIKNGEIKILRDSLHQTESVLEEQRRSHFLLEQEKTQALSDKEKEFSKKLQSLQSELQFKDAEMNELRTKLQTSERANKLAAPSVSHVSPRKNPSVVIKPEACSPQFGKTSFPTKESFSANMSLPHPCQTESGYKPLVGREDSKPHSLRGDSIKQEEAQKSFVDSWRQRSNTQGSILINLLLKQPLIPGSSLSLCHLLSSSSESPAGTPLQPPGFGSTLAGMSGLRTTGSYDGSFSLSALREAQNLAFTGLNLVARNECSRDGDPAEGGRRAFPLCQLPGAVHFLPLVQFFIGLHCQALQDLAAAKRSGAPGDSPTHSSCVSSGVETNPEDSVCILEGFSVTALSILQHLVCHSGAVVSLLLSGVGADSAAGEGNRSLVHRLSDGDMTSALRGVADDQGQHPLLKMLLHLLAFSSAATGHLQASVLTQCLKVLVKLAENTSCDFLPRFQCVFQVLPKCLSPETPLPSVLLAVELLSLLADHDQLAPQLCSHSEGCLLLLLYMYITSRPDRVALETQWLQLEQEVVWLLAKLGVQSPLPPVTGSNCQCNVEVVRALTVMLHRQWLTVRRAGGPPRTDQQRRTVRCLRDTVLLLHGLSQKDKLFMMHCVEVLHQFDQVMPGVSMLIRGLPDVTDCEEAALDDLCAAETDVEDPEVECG

GBM patients = details: neoadjuvant treatment, Cloughesy et al. (2019); cited from earlier work

In the case of `Cn1cnc2c(F)c(Nc3ccc(Br)cc3Cl)c(C(=O)NOCCO)cc21` [AZD6244], the “oncogene-induced senescence by staining for senescence-associated β galactosidase” value [1] is reported as “restores oncogene-induced senescence”, the Stem cell score (MCF10A shATR cells) is reported as “can reverse the stem-cell phenotype” and the “CSC depletion by aldehyde dehydrogenase (ALDH) positivity” value [2] is reported as “CSCs are depleted”. For the same molecule, the p21 protein expression (p21) was “recovers p21 protein expression”.

In the case of `NC(=O)Nc1cc(-c2cccc(F)c2)sc1C(=O)N[C@H]1CCCNC1` [AZD7762], the “tumor growth, sensitization to immunotherapy” value [3] is reported as “sensitizes cells to immunotherapy”.

In the case of `O=C(Nc1ccc2[nH]nc(-c3ccncc3)c2c1)[C@@H]1CCN(CC(=O)N2CCN(c3ccc(-c4ncccn4)cc3)CC2)C1` [SCH772984], the “oncogene-induced senescence by staining for senescence-associated β galactosidase” value [1] is reported as “restores oncogene-induced senescence”, the “CSC depletion by aldehyde dehydrogenase (ALDH) positivity” value [2] is reported as “CSCs are depleted” and the p21 protein expression (p21) is reported as “recovers p21 protein expression”. For the same molecule, the MDM2 phosphorylation (MDM2 phosphorylation) was “suppression of MDM2 phosphorylation” and the p53 levels (p53) was “negligible changes in p53 levels”.

For `CS(=O)(=O)c1ccc(-c2cnc(N)c(C(=O)Nc3ccccc3)n2)cc1` [VE821], the IC50 (ATR) is listed as 0.015 µM.

In the case of “pembrolizumab: anti-PD-1 antibody described in WO2009/114335”, the improvement in survival (GBM patients) is given as 6.2 month.

Source: patent publication US11851712B2, “Replication stress response biomarkers for immunotherapy response” (Board of Regents, The University of Texas System, priority 2018, dated 2023)
